What was measured:
SKOV-3 tumor xenographs = assay: SKOV-3 tumor xenograft in nude mice; format: in vivo
Method: The effects of exemplary compounds of the invention on the growth of SKOV-3 tumor xenographs in nude mice were investigated. Substantively, four- to six week-old immunodeficient nude mice (NU/NU; strain code 088/homozygous) (Charles River Laboratories, Wilmington, Mass.) were maintained at a temperature of 22±1° C. and a relative humidity of 55±5%, with a 12 h light/dark cycle. SKOV-3 cells were cultured to 80% confluence, washed in PBS twice, harvested by hypsination, pooled in complete medium, washed in PBS twice, and 2×10^6 cells/inoculate were suspended in 0.1 ml of matrigel and inoculated subcutaneously in the flank of mice. Mice with developing tumors after two weeks were randomly assigned to experimental groups. Compound (3) was prepared as a stock solution of 1 mM in 100% EtOH and diluted 1:40 in PBS for administration. […] Mice were weighed and tumor size caculated using a caliper every 5 days.
Four to six week-old immunodeficient nude mice (NU/NU; strain code 088/homozygous) (Charles River Laboratories, Wilmington, Mass.) were maintained at a temperature of −22° C. and a relative humidity of ˜55%, with a 12 h light/dark cycle. […]

SKOV-3 cells [1] = assay: inhibition of lipid synthesis in SKOV-3 cells (HPLC of extracted lipids); format: cell-based; conditions: 500 nM, serum free
Method: Approximately 3 million cells in serum free conditions were treated with Compound (3) (500 nM). Media was removed, and cells were washed with PBST, trypisinized and collected after centrifugation at 1,000 rpm. The cell pellet was washed with PBST and treated with methanolic HCl for 1 hour. The methanol was removed, and cells were suspended in water and extracted with chloroform. The collected chloroform layer was evaporated with a gentle nitrogen stream, and the residue was analyzed by HPLC.

ECC-1 cells = assay: MTS cell viability assay, ECC-1; format: cell-based; conditions: FIG. 3
Method: ECC-1 cells were seeded (10,000 cells/well) in complete RPMI (supplemented with 10% fetal bovine serum and 1% antibiotic) and allowed to adhere over night. Media was replaced with a fresh complete RPMI media containing varying concentrations of Compound (3). DMSO was used as control. At suitable intervals (varying from 1 minute to 4 days), the media was replaced again with complete RPMI (supplemented with 10% fetal bovine serum and 1% antibiotic) containing MTS dye (Invitrogen Inc) and incubated for period (varying from 10 min to 1 day). The absorbance of the media was read at varying wavelengths, advantageously at […] in an ELISA reader.
(§1) Viability of cell lines (ECC-1, AN3CA, RL-95-2, SKOV-3, PC-3, MCF-7, SMSKCNR and TCL-1) before and after MeTC7 treatment was determined by the CellTiter 96® AQueous One Solution Assay (Promega Corp, Madison, Wisc.) following the manufacturer's recommendations. This colorimetric assay is based on the ability of mitochondria to reduce a substrate [MTS, 3-(4,5-dimethylthiazol-2-yl)-5-(3-carboxymethoxy phenyl)-2-(4-sulfophenyl)-2H-tetrazolium] into a soluble formazan product quantified by measuring the absorbance at 490 nm. The resulting OD is directly proportional to the number of living cells. […] The samples were incubated for an additional 4 h before absorbance was measured at 490 nm in an ELISA plate reader (Thermo Labsystems, Waltham, Mass.). […]

A2058 cells xenograft = assay: melanoma (A2058) xenograft in nude mice; format: in vivo; conditions: 10 mg/kg bwt i.p., 5× week, 15 days
Method: (§2) Animal experiments were carried out in the animal facilities of Rhode Island Hospital (RIH), Rhode Island, USA with strict adherence to the guidelines of the Animal Welfare Committee of Rhode Island Hospital (RIH) and Women and Infants Hospital of Rhode Island (Laboratory Animal Protection Approval: A3922-01). Four to six week-old immunodeficient nude mice (NU/ NU; strain code 088/homozygous) (Charles River Laboratories, Wilmington, Mass.) were maintained at a temperature of ˜22° C. and a relative humidity of ˜55%, with a 12 h light/dark cycle. A2058 cells were cultured to 80% confluence, washed in PBS twice, harvested by trypsination, pooled in complete medium, washed in PBS twice, and 1×10^6 cells/inoculate were suspended in 0.1 ml of matrigel and inoculated subcutaneously in the flank of mice. Mice with developing tumors after two weeks were randomly assigned to experimental groups. Mice were treated intraperitoneally every day with either vehicle control (control group; 7 animals) or MeTC7 (10 mg/kg bwt, 5× week) for 15 days. Mice were weighed and tumor size were measured using a digital caliper every 5th days. The percent of animals with tumor size less than 15 mm was calculated by Kaplan-Meier Analysis.

[2] = test system: various cancer cell lines; assay: viability of a panel of cancer cell lines (CellTiter 96 MTS); format: cell-based; conditions: FIGS. 11A-11C
Method: Viability of cell lines (ECC-1, AN3CA, RL-95-2, SKOV-3, PC-3, MCF-7, SMSKCNR and TCL-1) before and after MeTC7 treatment was determined by the CellTiter 96® AQueous One Solution Assay (Promega Corp, Madison, Wisc.) following the manufacturer's recommendations. This colorimetric assay is based on the ability of mitochondria to reduce a substrate [MTS, 3-(4,5-dimethylthiazol-2-yl)-5-(3-carboxymethoxy phenyl)-2-(4-sulfophenyl)-2H-tetrazolium] into a soluble formazan product quantified by measuring the absorbance at 490 nm. The resulting OD is directly proportional to the number of living cells. Briefly, cells (5×10^3/well) were plated into 96 well flat bottom plates (Corning, Inc., Coming, N.Y.) before treatment with various drugs or vehicle (DMSO) as indicated. Following incubation at 37° C. in a cell culture incubator for 20 h MTS reagent was added at a 1:10 dilution to the medium. The samples were incubated for an additional 4 h before absorbance was measured at 490 nm in an ELISA plate reader (Thermo Labsystems, Waltham, Mass.). Experiments were performed in triplicates; data are expressed as the mean of the triplicate determinations (X±SD) of a representative experiment in % of absorbance by samples with untreated cells [=100%]. Similarly, the cell viability of HEPG2 and HEK293 cells was determined except that the drug concentrations were used in the logarithmic values.

DAOY cells xenograft = assay: medulloblastoma (DAOY) xenograft in nude mice; format: in vivo; conditions: 10 mg/kg bwt i.p., 5× week, 15 days
Method: as §2, with “mice (NU/NU;” for “mice (NU/ NU;”, “cycle. DAOY” for “cycle. A2058”, “group; 6” for “group; 7”, “MeTC7 (n=5, 10” for “MeTC7 (10”, “days.” for “days. The percent of animals with tumor size less than 15 mm was calculated by Kaplan-Meier Analysis.”

HUVEC cells = assay: wound healing (scratch) assay with HUVEC cells; format: cell-based; conditions: 500 nMoles, 24 hours
Method: A 24-well plate was coated with 100 µL of sterile 1% gelatin solution per well. After gelatin coating was hardened, about 100,000 HUVEC cells were seeded per well and allowed to grow to 100% confluence in EBM-2 media. A […] tip was then used to create a vertical scratch wound down the center of each well, and cells were washed once with fresh EBM-2 media. Cell monolayers were then imaged at a 0 h time point using light microscopy on an inverted microscope under sterile conditions. Wound areas were imaged again using light microscopy, and areas were demarcated on representative images.
Floating cells were removed and media was replaced with HUVEC cell media supplemented with vehicle or Compound (3) (500 nMoles) and incubated for 24 hours. The cells were imaged using a pre-cooled inverted NICON microscope (40×).

VDR-LBD = molecular target: T1, VDR-LBD (Homo sapiens, UniProt P11473)
T1 sequence (P11473 127-423 limits assumed): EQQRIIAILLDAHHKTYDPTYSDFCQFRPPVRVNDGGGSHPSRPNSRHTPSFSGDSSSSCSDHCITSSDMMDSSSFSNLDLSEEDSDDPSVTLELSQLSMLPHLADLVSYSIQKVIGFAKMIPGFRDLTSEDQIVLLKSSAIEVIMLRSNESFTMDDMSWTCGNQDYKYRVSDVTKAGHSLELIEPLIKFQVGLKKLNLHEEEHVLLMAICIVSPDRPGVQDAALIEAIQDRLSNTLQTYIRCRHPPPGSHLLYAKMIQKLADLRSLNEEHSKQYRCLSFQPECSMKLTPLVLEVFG
Excerpt: VDR antagonists disrupt this interaction by a direct or allosteric mode of inhibition.

[3] = test system: SKOV-3 and OVCAR-8 ovarian cancer cells; assay: apoptosis detection (TUNEL, cytochrome-C release) in ovarian cancer cells; format: cell-based
Method: SKOV -3 and OVCAR-8 ovarian cancer cells (10,000 per well) were seeded in a 8 well slide chamber in DMEM complete media and allowed to incubate overnight. Cells were treated with complete media containing either vehicle or MeTC7 (500 nM) and incubated for 12 hours in a humidified incubator maintained at standard conditions. DNA fragmentation was detected using the DeadEndTM Fluorometric TUNEL System assay (Promega, Madison, Wisc.) according to the manufacturer's recommendations. Fluorescence of apoptotic cells (green; labeling of DNA nicks by fluorescein-12-dUTP) and of chromatin (red; staining of chromatin with propidium iodide) was detected by fluorescence microscopy with an inverted microscope (Nikon Eclipse TE2000-E) and a 10× objective. Four randomly chosen microscopic fields were captured. For the detection of the cytochrome-C release as a marker of the apoptosis, the cells were fixed in 5% cold formalin solution and cells were stained with cytochrome-C primary antibody (Santa Cruz Biotechnology, USA) and corresponding fluroescence linked secondary antibody. The images were recorded using an inverted microscope. At least five field were arbitrarily scoped.

[4] = test system: rat aorta rings (microcapillary formation); assay: ex vivo rat aorta ring assay; conditions: 24 hour treatment, FIG. 9
Method: Rat aorta were harvested from the freshly euthanized naïve rats, cleaned and cut into fine rings and placed on matrigel beds prepared 30 min earlier in a 6 well plate. […] The media was replaced with fresh supplemented media and allowed the incubation for next 48 hours, thus affording a strong network of the microcappilary network. […] The phase contrast images were recorded on a pre-cooled inverted NICON microscope.

SKOV-3 cells [5] = assay: MTS cell viability assay, SKOV-3; format: cell-based; conditions: FIG. 1 / FIG. 2
Method: SKOV-3 cells were seeded (5,000 cells/well) in complete DMEM (supplemented with 10% fetal bovine serum and 1% antibiotic) and allowed to adhere overnight. Media was replaced with a fresh complete DMEM media containing varying concentrations of the drugs of interest. DMSO was used as control. At a suitable interval (varying from 1 minute to 4 days), the media was replaced again with complete RPMI (supplemented with 10% fetal bovine serum and 1% antibiotic) containing MTS dye (Invitrogen Inc.) and incubated for a period varying from 10 minutes to 1 day. The absorbance of the media was read at varying wavelengths, advantageously at […] in an ELISA reader.
as §1, with “nm.” for “nm. The resulting OD is directly proportional to the number of living cells.”

[6] = test system: panel of cancer cell lines; assay: ascorbic acid pretreatment, MTS viability in a panel of cancer cell lines; format: cell-based; conditions: ascorbic acid pretreatment 3 hours
Method: Cell lines derived from ovarian cancer, endometrial cancer, breast cancer, prostate cancer and neuroblastoma (5,000 cells/well) were seeded in complete DMEM (supplemented with 10% fetal bovine serum and 1% antibiotic) and allowed to adhere over night. Cells were pretreated with […] of acrorbic acid in 50 μL DMEM media for 3 hours. To the existing media was added DMEM media containing varying concentrations of 2× concentration of Compound (3). DMSO was used as control. At suitable intervals (varying from 1 minute to 4 days), the media was replaced again with complete RPMI (supplemented with 10% fetal bovine serum and 1% antibiotic) containing MTS dye (Invitrogen Inc) and incubated for period (varying from 10 min to 1 day). The absorbance of the media was read at varying wavelengths, advantageously at 492 nm, in an ELISA reader.

With `CC(C)CCC[C@@H](C)[C@H]1CC[C@H]2C34C=CC5(C[C@@H](OC(=O)CBr)CC[C@]5(C)[C@H]3CC[C@]12C)n1c(=O)n(C)c(=O)n14` (stereo partly shown) [Compound (3)] as the compound, how does the tumor burden (SKOV-3 tumor xenographs; 10 mg/kg bwt i.p. every other day, 40 days, FIG. 7) read?
The tumor burden was “reduces the tumor burden”.

What about the “growth of ovarian cancer xenografts” value (SKOV-3 tumor xenographs; 10 mg/kg bwt i.p., 5× week, 31 days, FIG. 11F) of the same compound?
The value was “reduce the growth of ovarian cancer xenografts in animals”.

What about the “lipids appearing at 10.06 minutes (HPLC)” value (SKOV-3 cells [1]) of the same compound?
The value was “significantly reduced”.

And the “cell viability of ECC-1 cells” value (ECC-1 cells)?
Its value is “reduction in cell viability”.

What about the “growth of BRAF mutant melanoma xenografts” value (A2058 cells xenograft) of the same compound?
Its value is “reduce the growth of BRAF mutant melanoma xenografts in animals”.

And the “survival of animals with melanoma xenografts” value (A2058 cells xenograft; Kaplan-Meier)?
The value was “extend survival in these animals”.

What about the “growth of cancer cell lines” value [2] of the same compound?
Its value is “block growth of various cancer cell lines”.

And the “growth of medulloblastoma xenografts” value (DAOY cells xenograft)?
Its value is “reduce the growth of medulloblastoma xenografts in animals”.

And the “recovery of the scratched area” value (HUVEC cells)?
Its value is “failed to recover and repopulate the scratched area”.

What about the “VDR antagonism, selectivity” value (VDR-LBD; FIGS. 10A-10F) of the same compound?
The value was “selective Vitamin D nuclear receptor (VDR) antagonists”.

What about the “VDR agonism (coactivator recruitment)” value (VDR-LBD; in the absence of calcitriol) of the same compound?
The value was “not a VDR agonist”.

And the cytochrome-C release ([3]; 500 nM, 12 hours)?
The cytochrome-C release was “abundant cytochrome-C release in the cytosol”.

What about the apoptosis ([3]; FIGS. 11D-11E) of the same compound?
Its apoptosis is “cause apoptosis”.

What about the “capillary formation and outgrowth” value [4] of the same compound?
Its value is “inhibited capillary formation and outgrowth”.

And the “cell viability of SKOV-3 cells” value (SKOV-3 cells [5])?
Its value is “reduction in cell viability”.

And the “cytotoxic effects after ascorbic acid pretreatment” value [6]?
The value was “reduced the cytotoxic effects”.
